Assay results as given in PMC8268181, “Pharmacokinetic evaluation of Chalcone derivatives with antimalarial activity in New Zealand White Rabbits” (BMC Research Notes, 2021).
Entries after “also recorded” stand apart in the source; their conditions may differ. Read-outs that look alike come from different tables or passages of the source.

Experiment: In vivo pharmacokinetic study, single intraperitoneal/oral dose, plasma concentration by RP-HPLC
Design: species or system New Zealand White rabbits
Conditions: for Cmax / C0 / AUC(0-t) / half-life / Tmax: both sexes, New Zealand White, plasma; for Cmax: read-out: Cmax (peak plasma concentration); for C0: read-out: C0 (concentration of administrated drug at time zero); for AUC(0-t): linear trapezoidal method, read-out: AUC0–48 (area under the total plasma concentration–time curve); for half-life: read-out: t1/2 (elimination half-life) (converted); for Tmax: rabbit, read-out: tmax (time to reach the peak plasma concentration); for increased bioavailability as compared to in vitro concentration: in vitro concentration from ref 15; for bioavailability (in words): single dose, derivative 1 intraperitoneal, derivatives 2 and 3 oral
Description: The ten healthy adult New Zealand White rabbits weighing between 1.75–2.75 kg of either sex were procured from the institute Advanced Facility for Small Animal Research, PGIMER Chandigarh, after approval from the Institutional Animal Ethics Committee Ref. No. 69/IAEC/418 as per the Committee for the Purpose of Control and Supervision of Experiments on Animals (CPCSEA) guidelines. The animals were housed in polypropylene cages under standard laboratory conditions at controlled temperature (25 ± °C) and 12-h light/dark cycles until the end of the experimental period. Animals were given free access to diet and water in a room and were fasten for at least 12 h prior to experiment. To achieve meaningful statistical results, we used a minimally sufficient number of animals in all cases. A fifteen-days washout period was carried out, which allows animals to completely recover and clear off the administered derivatives.
A total of ten healthy adult New Zealand White rabbits were divided into three groups; (i) derivative 1 treated group, (ii) derivative 2 treated group, and (iii) derivative 3 treated group. The whole experiment was performed in two batches with each batches containing n = 3 animals per group. The second batch with same groups were repeated after giving fifteen-days washout period which helps animals to recover and clear off previous administered derivatives. The three chalcone derivatives were administered at effective dose concentration [dose extrapolated from in vitro study, [15] as per OECD GLP compliance. A single dose of each chalcone derivatives 1, 2 & 3 (suspended in 0.5% carboxymethyl cellulose) were administered to each animal in the early morning at 7:00 am, which was noted as 0 h and then blood samples (1 mL) of animals were collected at specific time intervals of 0, 0.25 h, 0.5 h, 1 h, 2 h, 4 h, 6 h, 8 h, 12 h, 24 h, 36 h, 48 h from marginal ear vein in heparin containing vials. These derivatives were either administered orally through orogastric tube or intraperitoneally. All blood samples were collected from the marginal ear vein after topical anaesthesia with 4% lignocaine solution. No euthanasia procedure was required during the study, and after completion of experiments all animals were kept in rehabilitation centre according to CPCSEA guidelines, in the institute Advanced Facility for Small Animal Research, PGIMER, Chandigarh. Plasma samples for the determination of drug concentration were prepared for RP-HPLC analysis.
Rabbit blood samples were accumulated in heparin contained dry evacuated tubes from marginal ear veins of healthy rabbits as per the standard operating procedure. These samples were centrifuged within 1 h of collection, for segregation of plasma at 1500 rpm for 10 min. The segregated plasma was preserved at […] till assay. Prior experimental analysis the deproteinization of the plasma samples was done in the mixture of methanol and water (90:10 v/v), then vortexed for at least 10–15 min, after while centrifuged for at least 15 min at 6000 rpm, and finally supernatants were pipette-out in a new vial. The supernatants were then spiked with the measured volume of diluted stock solutions of chalcone making up to final concentrations of 10–100 μg/mL.
Each sample has been collected from rabbits at a different time interval and plasma was separated and either processed for assay procedure or stored at – 20 °C in deep freezer till experiment. On the day of the experiment, 100 µL of plasma from each vial was transferred to another and mixed with 100 µL of acetonitrile (HPLC analytical Grade). Then was kept for 5 min at room temperature and then centrifuged at 7000 rpm for 10 min. Supernatant was separated and reconstituted with the mobile phase and finally sterile filter with 0.22 µm membrane filter before the assay procedure.
Chromatographic separation was achieved as mentioned earlier with slight modification. […]

[1] = ip, derivative 1, single intraperitoneal dose 5.46 mg/1.5 kg rabbit, mean ± SEM, n = 6
[2] = 4.85 mg/kg, derivative 2, single oral dose 7.28 mg/1.5 kg rabbit, mean ± SEM, n = 5
[3] = derivative 2, single oral dose 7.28 mg/1.5 kg rabbit (4.85 mg/kg), mean ± SEM, n = 5
[4] = 3.64 mg/kg, derivative 3, single oral dose 5.46 mg/1.5 kg rabbit, mean ± SEM, n = 6

Compound: COc1ccc(/C=C/C(=O)c2cc(OC)ccc2OC)cc1 [Derivative 1, (E)-1-(2,5-Dimethoxyphenyl)-3-(4-methoxyphenyl)prop-2-en-1-one]
- Cmax (ip, derivative 1, single intraperitoneal dose 5.46 mg/1.5 kg rabbit (text: 3.84 mg/kg), mean ± SEM, n = 6): 1960 ± 460 ng/mL
- C0 [1]: 966 ± 25 ng/mL
- AUC(0-t) [1]: 2.94 ± 0.83 µg·h/mL
- half-life [1]: 756 ± 125 min
- Tmax (ip, 5.46 mg/1.5 kg rabbit, derivative 1, single intraperitoneal dose 5.46 mg/1.5 kg rabbit (text: 3.84 mg/kg), mean ± SEM, n = 6): 0.33 ± 0.05 h
- increased bioavailability as compared to in vitro concentration (compound 1, single intraperitoneal dose): three fold
- first blood sampling time at which derivative was spotted in plasma (derivative 1, after IP administration): 15 min
- mean CL (derivative 1, single 3.84 mg/kg intraperitoneal dose): 0.28 ± 0.08 L/h
- Vd (volume of distribution) (derivative 1, single intraperitoneal dose 5.46 mg/1.5 kg rabbit, mean ± SEM, n = 6): 7.31 ± 0.29 L
- bioavailability (in words): very low bioavailability

Compound: COc1ccc(/C=C/C(=O)c2cc(OC)c(OC)c(OC)c2)cc1 [Derivative 2, (E)-(3,4,5-Trimethoxyphenyl)-3-(4-methoxyphenyl)prop-2-en-1-one]
- C0 [2]: 986 ± 4 ng/mL
- AUC(0-t) [2]: 3760 ± 739 µg·h/mL
- half-life [2]: 5600 ± 1960 min
- Tmax (po, 4.85 mg/kg, derivative 2, single oral dose 7.28 mg/1.5 kg rabbit (4.85 mg/kg), mean ± SEM, n = 5): 3.84 h
- Cmax [3]: 69900 ± 5490 ng/mL
- increased bioavailability as compared to in vitro concentration (compound 2, single oral dose): tenfold
- mean CL (derivative 2, single 4.85 mg/kg oral dose): 0.15 ± 0.05 L/h
- systemic exposure (in words) (derivative 2, single oral administration, compared to other two chalcone derivatives): comparatively better systemic exposure
- time the peak concentration remained constant (derivative 2, single oral dose 4.85 mg/kg): 3 to 4 h
- tmax (time to reach the peak plasma concentration) [3]: 3.4 ± 0.79 h
- Vd (volume of distribution) (derivative 2, single oral dose 7.28 mg/1.5 kg rabbit, mean ± SEM, n = 5): 10.72 ± 0.66 L

Compound: COc1ccc(/C=C/C(=O)c2cc(OC)c(OC)c(OC)c2)cc1OC [Derivative 3, (E)-1-(3,4,5-Trimethoxyphenyl)-3-(3,4-dimethoxyphenyl)prop-2-en-1-one]
- C0 [4]: 944 ± 7 ng/mL
- AUC(0-t) [4]: 14.2 ± 3.78 µg·h/mL
- half-life [4]: 798 ± 100 min
- Tmax (po, 3.64 mg/kg, derivative 3, single oral dose 5.46 mg/1.5 kg rabbit (3.64 mg/kg), mean ± SEM, n = 6): 2.83 ± 0.87 h
- Cmax (derivative 3, single oral dose 5.46 mg/1.5 kg rabbit (3.64 mg/kg), mean ± SEM, n = 6): 3740 ± 1640 ng/mL
- increased bioavailability as compared to in vitro concentration (compound 3, single oral dose): 25 fold
- mean CL (derivative 3, single 3.64 mg/kg oral dose): 0.53 ± 0.10 L/h
- kinetics of metabolism / elimination phase (in words) (derivative 3, single oral dose): first order kinetics
- Vd (volume of distribution) (derivative 3, single oral dose 5.46 mg/1.5 kg rabbit, mean ± SEM, n = 6): 9.12 ± 0.73 L
- bioavailability (in words): poor bioavailability; also recorded: very low bioavailability
